Assay results as given in patent US12043632B2, “6-heteroaryloxy benzimidazoles and azabenzimidazoles as JAK2 inhibitors” (Ajax Therapeutics, Inc., priority 2020, dated 2024).

Each compound was assayed against T1, JAK2 (JH1domain-catalytic, Y1007F,Y1008F) kinase (Homo sapiens, UniProt O60674, Y1007F/Y1008F) (assay: JAK2 JH1 Domain Binding Assay). Settings: qPCR readout.
T1 construct: JAK2 (JH1domain-catalytic, Y1007F,Y1008F) kinase was expressed as N-terminal fusion; made in house; host or cells: transiently transfected HEK293 cells
T1 sequence (O60674 849-1124 Y1007F/Y1008F limits assumed): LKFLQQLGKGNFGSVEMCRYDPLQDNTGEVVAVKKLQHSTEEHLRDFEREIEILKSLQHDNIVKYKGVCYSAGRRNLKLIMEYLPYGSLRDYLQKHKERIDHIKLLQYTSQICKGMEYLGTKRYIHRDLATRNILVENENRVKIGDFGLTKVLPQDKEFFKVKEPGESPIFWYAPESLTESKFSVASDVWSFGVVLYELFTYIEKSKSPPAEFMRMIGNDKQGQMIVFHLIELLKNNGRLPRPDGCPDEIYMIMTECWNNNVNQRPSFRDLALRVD

CN1CC[C@@H](n2nc(Nc3nc4ncc(Oc5cnc6scnc6c5)c(Cl)c4n3C)cc2C(C)(C)C)C1 [Example I-27, (R)—N-(5-(tert-butyl)-1-(1-methylpyrrolidin-3-yl)-1H-pyrazol-3-yl)-7-chloro-1-methyl-6-(thiazolo[5,4-b]pyridin-6-yloxy)-1H-imidazo[4,5-b]pyridin-2-amine] and CN1CC[C@H](n2nc(Nc3nc4ncc(Oc5cnc6scnc6c5)c(Cl)c4n3C)cc2C(C)(C)C)C1 [Example I-28, (S)—N-(5-(tert-butyl)-1-(1-methylpyrrolidin-3-yl)-1H-pyrazol-3-yl)-7-chloro-1-methyl-6-(thiazolo[5,4-b]pyridin-6-yloxy)-1H-imidazo[4,5-b]pyridin-2-amine] fall in the same range of Kd: 10 to 50 nM for the first, 10 to 50 nM for the second.

Cn1c(Nc2cc(C(C)(C)C)n([C@H]3CCN(CCF)C3)n2)nc2ncc(Oc3cnn4ccncc34)c(Cl)c21 [Example I-29, (S)—N-(5-(tert-butyl)-1-(1-(2-fluoroethyl)pyrrolidin-3-yl)-1H-pyrazol-3-yl)-7-chloro-1-methyl-6-(pyrazolo[1,5-a]pyrazin-3-yloxy)-1H-imidazo[4,5-b]pyridin-2-amine] and Cn1c(Nc2cc(C(C)(C)C)n([C@@H]3CCN(CCF)C3)n2)nc2ncc(Oc3cnn4ccncc34)c(Cl)c21 [Example I-30, (R)—N-(5-(tert-butyl)-1-(1-(2-fluoroethyl)pyrrolidin-3-yl)-1H-pyrazol-3-yl)-7-chloro-1-methyl-6-(pyrazolo[1,5-a]pyrazin-3-yloxy)-1H-imidazo[4,5-b]pyridin-2-amine] cannot be ordered by Kd: < 10 nM for the first, < 10 nM for the second.

CN1CC[C@H](n2nc(Nc3nc4ncc(Oc5cnn6ccncc56)c(Cl)c4n3C)cc2C(C)(C)C)C1 [Example I-31, (S)—N-(5-(tert-butyl)-1-(1-methylpyrrolidin-3-yl)-1H-pyrazol-3-yl)-7-chloro-1-methyl-6-(pyrazolo[1,5-a]pyrazin-3-yloxy)-1H-imidazo[4,5-b]pyridin-2-amine] and CN1CC[C@@H](n2nc(Nc3nc4ncc(Oc5cnn6ccncc56)c(Cl)c4n3C)cc2C(C)(C)C)C1 [Example I-32, (R)—N-(5-(tert-butyl)-1-(1-methylpyrrolidin-3-yl)-1H-pyrazol-3-yl)-7-chloro-1-methyl-6-(pyrazolo[1,5-a]pyrazin-3-yloxy)-1H-imidazo[4,5-b]pyridin-2-amine] cannot be ordered by Kd: < 10 nM for the first, < 10 nM for the second.

Cn1c(Nc2cc(C(C)(C)C)n(C3CC4(COC4)C3)n2)nc2ncc(Oc3cnn4ccnc4c3)c(Cl)c21 [Example I-33, N-(5-(tert-butyl)-1-(2-oxaspiro[3.3]heptan-6-yl)-1H-pyrazol-3-yl)-7-chloro-6-(imidazo[1,2-b]pyridazin-7-yloxy)-1-methyl-1H-imidazo[4,5-b]pyridin-2-amine] and Cn1c(Nc2cc(C(C)(C)C)n(C3CC4(COC4)C3)n2)nc2ncc(Oc3cnc4ccnn4c3)c(Cl)c21 [Example I-42, N-(5-(tert-butyl)-1-(2-oxaspiro[3.3]heptan-6-yl)-1H-pyrazol-3-yl)-7-chloro-1-methyl-6-(pyrazolo[1,5-a]pyrimidin-6-yloxy)-1H-imidazo[4,5-b]pyridin-2-amine] fall in the same range of Kd: 10 to 50 nM for the first, 10 to 50 nM for the second.

First: Cn1c(Nc2cc(C(C)(C)C)n(CC(F)F)n2)nc2ncc(Oc3cnn4ccncc34)c(Cl)c21 [Example I-34, N-(5-(tert-butyl)-1-(2,2-difluoroethyl)-1H-pyrazol-3-yl)-7-chloro-1-methyl-6-(pyrazolo[1,5-a]pyrazin-3-yloxy)-1H-imidazo[4,5-b]pyridin-2-amine]
Second: Cn1c(Nc2cc(C(C)(C)C)n(CC#N)n2)nc2ncc(Oc3cnn4ccncc34)c(Cl)c21 [Example I-54, 2-(5-(tert-butyl)-3-((7-chloro-1-methyl-6-(pyrazolo[1,5-a]pyrazin-3-yloxy)-1H-imidazo[4,5-b]pyridin-2-yl)amino)-1H-pyrazol-1-yl)acetonitrile]
The Kd of the first is lower: < 10 nM for the first, 10 to 50 nM for the second. The first binds more tightly here.

Compared with CN1CC[C@H](n2nc(Nc3nc4ncc(Oc5cnn6ccnc6c5)c(Cl)c4n3C)cc2C(C)(C)C)C1 [Example I-35, (S)—N-(5-(tert-butyl)-1-(1-methylpyrrolidin-3-yl)-1H-pyrazol-3-yl)-7-chloro-6-(imidazo[1,2-b]pyridazin-7-yloxy)-1-methyl-1H-imidazo[4,5-b]pyridin-2-amine], CN1CC[C@@H](n2nc(Nc3nc4ncc(Oc5cnn6ccnc6c5)c(Cl)c4n3C)cc2C(C)(C)C)C1 [Example I-36, (R)—N-(5-(tert-butyl)-1-(1-methylpyrrolidin-3-yl)-1H-pyrazol-3-yl)-7-chloro-6-(imidazo[1,2-b]pyridazin-7-yloxy)-1-methyl-1H-imidazo[4,5-b]pyridin-2-amine] is higher in Kd: 10 to 50 nM for the first, 50 to 1000 nM for the second.

CN1CC[C@H](n2nc(Nc3nc4ncc(Oc5cnc6scnc6c5)c(C(F)F)c4n3C)cc2C(C)(C)C)C1 [Example I-39, (S)—N-(5-(tert-butyl)-1-(1-methylpyrrolidin-3-yl)-1H-pyrazol-3-yl)-7-(difluoromethyl)-1-methyl-6-(thiazolo[5,4-b]pyridin-6-yloxy)-1H-imidazo[4,5-b]pyridin-2-amine] and CN1CC[C@@H](n2nc(Nc3nc4ncc(Oc5cnc6scnc6c5)c(C(F)F)c4n3C)cc2C(C)(C)C)C1 [Example I-40, (R)—N-(5-(tert-butyl)-1-(1-methylpyrrolidin-3-yl)-1H-pyrazol-3-yl)-7-(difluoromethyl)-1-methyl-6-(thiazolo[5,4-b]pyridin-6-yloxy)-1H-imidazo[4,5-b]pyridin-2-amine] fall in the same range of Kd: 10 to 50 nM for the first, 10 to 50 nM for the second.

First: Cn1c(Nc2cc(C(C)(C)C)n([C@H]3CCN(CCF)C3)n2)nc2ncc(Oc3cnn4ccncc34)c(C(F)F)c21 [Example I-43, (S)—N-(5-(tert-butyl)-1-(1-(2-fluoroethyl)pyrrolidin-3-yl)-1H-pyrazol-3-yl)-7-(difluoromethyl)-1-methyl-6-(pyrazolo[1,5-a]pyrazin-3-yloxy)-1H-imidazo[4,5-b]pyridin-2-amine]
Second: Cn1c(Nc2cc(C(C)(C)C)n([C@@H]3CCN(CCF)C3)n2)nc2ncc(Oc3cnn4ccncc34)c(C(F)F)c21 [Example I-44, (R)—N-(5-(tert-butyl)-1-(1-(2-fluoroethyl)pyrrolidin-3-yl)-1H-pyrazol-3-yl)-7-(difluoromethyl)-1-methyl-6-(pyrazolo[1,5-a]pyrazin-3-yloxy)-1H-imidazo[4,5-b]pyridin-2-amine]
The Kd of the first is lower: 10 to 50 nM for the first, 50 to 1000 nM for the second.

Compared with COc1c(Oc2cnc3sccc3c2)cnc2nc(Nc3cc(C(C)(C)C)n([C@H]4CCN(C)C4)n3)n(C)c12 [Example I-45, (S)—N-(5-(tert-butyl)-1-(1-methylpyrrolidin-3-yl)-1H-pyrazol-3-yl)-7-methoxy-1-methyl-6-(thieno[2,3-b]pyridin-5-yloxy)-1H-imidazo[4,5-b]pyridin-2-amine], COc1c(Oc2cnc3sccc3c2)cnc2nc(Nc3cc(C(C)(C)C)n([C@@H]4CCN(C)C4)n3)n(C)c12 [Example I-46, (R)—N-(5-(tert-butyl)-1-(1-methylpyrrolidin-3-yl)-1H-pyrazol-3-yl)-7-methoxy-1-methyl-6-(thieno[2,3-b]pyridin-5-yloxy)-1H-imidazo[4,5-b]pyridin-2-amine] is higher in Kd: 10 to 50 nM for the first, 50 to 1000 nM for the second.

Cn1c(Nc2cc(C(C)(C)C)n(C3CC4(COC4)C3)n2)nc2ncc(Oc3cnn4ccncc34)c(Cl)c21 [Example I-49, N-(5-(tert-butyl)-1-(2-oxaspiro[3.3]heptan-6-yl)-1H-pyrazol-3-yl)-7-chloro-1-methyl-6-(pyrazolo[1,5-a]pyrazin-3-yloxy)-1H-imidazo[4,5-b]pyridin-2-amine] and Cn1c(Nc2cc(C(C)(C)C)n(C3CC4(COC4)C3)n2)nc2ncc(Oc3cnn4ccncc34)c(C(F)F)c21 [Example I-53, N-(5-(tert-butyl)-1-(2-oxaspiro[3.3]heptan-6-yl)-1H-pyrazol-3-yl)-7-(difluoromethyl)-1-methyl-6-(pyrazolo[1,5-a]pyrazin-3-yloxy)-1H-imidazo[4,5-b]pyridin-2-amine] cannot be ordered by Kd: < 10 nM for the first, < 10 nM for the second.

COc1c(Oc2cnn3ccncc23)cnc2nc(Nc3cc(C(C)(C)C)n([C@H]4CCN(CCF)C4)n3)n(C)c12 [Example I-50, (S)—N-(5-(tert-butyl)-1-(1-(2-fluoroethyl)pyrrolidin-3-yl)-1H-pyrazol-3-yl)-7-methoxy-1-methyl-6-(pyrazolo[1,5-a]pyrazin-3-yloxy)-1H-imidazo[4,5-b]pyridin-2-amine] and COCCN1CC[C@H](n2nc(Nc3nc4ncc(Oc5cnn6ccncc56)c(C(F)F)c4n3C)cc2C(C)(C)C)C1 [Example I-51, (S)—N-(5-(tert-butyl)-1-(1-(2-methoxyethyl)pyrrolidin-3-yl)-1H-pyrazol-3-yl)-7-(difluoromethyl)-1-methyl-6-(pyrazolo[1,5-a]pyrazin-3-yloxy)-1H-imidazo[4,5-b]pyridin-2-amine] fall in the same range of Kd: 10 to 50 nM for the first, 10 to 50 nM for the second.

Cn1c(Nc2cc(C(C)(C)C)n([C@H]3C[C@H](O)C3)n2)nc2ncc(Oc3cnn4ccncc34)c(Cl)c21 [Example I-55, trans-3-(5-(tert-butyl)-3-((7-chloro-1-methyl-6-(pyrazolo[1,5-a]pyrazin-3-yloxy)-1H-imidazo[4,5-b]pyridin-2-yl)amino)-1H-pyrazol-1-yl)cyclobutan-1-ol] and Cn1cc(C2CC2)cc(Nc2nc3ncc(Oc4cnn5ccncc45)c(Cl)c3n2C)c1=O [Example I-57, 3-((7-chloro-1-methyl-6-(pyrazolo[1,5-a]pyrazin-3-yloxy)-1H-imidazo[4,5-b]pyridin-2-yl)amino)-5-cyclopropyl-1-methylpyridin-2(1H)-one] cannot be ordered by Kd: < 10 nM for the first, < 10 nM for the second.

COCCn1cc(C2CC2)cc(Nc2nc3ncc(Oc4cnn5ccncc45)c(OC)c3n2C)c1=O [Example I-58, 5-cyclopropyl-3-((7-methoxy-1-methyl-6-(pyrazolo[1,5-a]pyrazin-3-yloxy)-1H-imidazo[4,5-b]pyridin-2-yl)amino)-1-(2-methoxyethyl)pyridin-2(1H)-one] and Cn1cc(C2CC2)cc(Nc2nc3ncc(Oc4cnn5ccncc45)c(C(F)F)c3n2C)c1=O [Example I-59, 5-cyclopropyl-3-((7-(difluoromethyl)-1-methyl-6-(pyrazolo[1,5-a]pyrazin-3-yloxy)-1H-imidazo[4,5-b]pyridin-2-yl)amino)-1-methylpyridin-2(1H)-one] cannot be ordered by Kd: < 10 nM for the first, < 10 nM for the second.
